Biological target: T1, NK1 receptor (Homo sapiens, UniProt P25103)
T1 construct: endogenous in cells; host or cells: IM9 cells (intact)
Assay: [3H] SP binding assay in IM9 Cell Line (Substance P antagonism)
Conditions: intact IM9 cells, 60 min, room temperature, compound at 1 μM
Protocol: Assessment of biological activity (NK1 antagonism) of compounds of this invention was performed by means of the following binding and functional assays:
[3H] SP binding assay in IM9 Cell Line
Binding assay was performed with intact cells as described by Payan et al. (J. Immunology 133, 3260 (1984)). Cells were washed with buffer A, (pH 7.5), containing (in mM) Tris-HCl 50, and NaCl 150, plus 0.02% BSA, and then resuspended in assay buffer (buffer A supplemented with protease inhibitors) at a concentration of 1×10^7 cells/ml. Cells were incubated with [3H]SP in a final volume of 0.5 ml for 60 min. at room temperature. Nonspecific binding was determined in the presence of […] nonradioactive SP. The assay mixture was set up in microfuge tubes that had been presoaked in a 0.5% BSA solution for at least 3 hours. Bound and free [^3 H]SP were separated by pelleting the cells in a microfuge (6 min.; 12000 g); the supernatant was then removed by aspiration. For competition binding experiments, IM9 cells were incubated in triplicate with […] [^3 H]SP (the approximate Kd value, as determined in saturation binding experiments); competing ligands were typically added in six concentrations (1:10 dilutions in assay buffer) to give full competition curves.

T1 sequence (P25103 whole entry): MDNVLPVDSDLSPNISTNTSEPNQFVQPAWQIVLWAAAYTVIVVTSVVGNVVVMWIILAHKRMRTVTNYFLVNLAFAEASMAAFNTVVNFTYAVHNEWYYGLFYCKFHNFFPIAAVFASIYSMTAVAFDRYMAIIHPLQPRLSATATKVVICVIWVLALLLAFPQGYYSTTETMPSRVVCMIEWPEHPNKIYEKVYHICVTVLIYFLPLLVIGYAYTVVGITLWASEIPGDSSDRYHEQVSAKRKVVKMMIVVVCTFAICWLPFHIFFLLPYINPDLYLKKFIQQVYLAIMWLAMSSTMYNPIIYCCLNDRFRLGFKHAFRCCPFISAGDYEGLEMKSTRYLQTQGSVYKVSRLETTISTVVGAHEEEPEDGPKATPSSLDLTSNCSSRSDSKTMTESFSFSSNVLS

| SMILES | inhibition at 1 µM [%] | % of binding inhibition at 1 μM (1 µM) [%] |
| --- | --- | --- |
| CN(Cc1ccccc1)C(=O)[C@H](Cc1ccccc1)NC(=O)C1CCCCC1NC(=O)c1c[nH]c2ccccc12 (stereo partly drawn) [Example 1 fast, N-methyl-N-benzylamide of N^α -{[N(indol-3-yl-carbonyl)(R,R)-trans-2-amino]cyclohexanoyl}-L-phenylalanine and N-methyl-N-benzylamide of N^α -{[N(indol-3-yl-carbonyl)(S,S)-trans-2-amino]cyclohexanoyl}-L-phenylalamine, reference compound] | 96 |  |
| CN(Cc1ccccc1)C(=O)[C@H](Cc1ccccc1)NC(=O)C1CCCCC1NC(=O)c1c[nH]c2ccccc12 (stereo partly drawn) [Example 2 fast, N-methyl-N-benzylamide of N^α -{[N(indol-3-yl-carbonyl)(R,S)-cis-2-amino]cyclohexanoyl}-L-phenylalanine and N-methyl-N-benzylamide of N^α -{[N(indol-3-yl-carbonyl)(S,R)-cis-2-amino]cyclohexanoyl}-L-phenylalanine] |  | 100 |
| CN(Cc1ccccc1)C(=O)[C@H](Cc1ccc2ccccc2c1)NC(=O)C1CCCCC1NC(=O)c1c[nH]c2ccccc12 (stereo partly drawn) [Example 3 fast, N^α [N-(1H-indol-3-yl-carbonyl)-(R,S)cis-2-aminocyclohexyl-carbonyl]-L-3(2-naphthyl)alanyl-N-methyl-N-benzylamide and N^α [N-(1H-indol-3-yl-carbonyl)-(S,R)cis-2-aminocyclohexyl-carbonyl]-L-3(2-naphthyl)alanyl-N-methyl-N-benzylamide] | 100 |  |
| CN(Cc1ccccc1)C(=O)[C@H](Cc1ccc2ccccc2c1)NC(=O)C1C2CCC(C2)C1NC(=O)c1c[nH]c2ccccc12 (stereo partly drawn) [Example 10 fast, N^α [N-(1H-indol-3-yl-carbonyl)-3S-endoaminobicyclo(2,2,1)heptyl-2R endocarbonyl]-L-3-(2-naphthyl)alanyl-N-methyl-N-benzylamide and N^α [N-(1H-indol-3-yl-carbonyl)-3R-endoaminobicyclo(2,2,1)heptyl-2S-endocarbonyl]-L-3-(2-naphthyl)alanyl-N-methyl-N-benzylamide] | 95 |  |
| CN(Cc1ccccc1)C(=O)[C@@H](Cc1ccc2ccccc2c1)NC(=O)C1CCCCC1NC(=O)c1ccccc1 (stereo partly drawn) [Example 17 fast, N^α [N-(benzoyl)-(R,S)cis-2-aminocyclohexyl-carbonyl]-D-3-(2-naphthyl)alanyl-N-methyl-N-benzylamide and N^α [N-(benzoyl)-(S,R)cis-2-aminocyclohexyl-carbonyl]-D-3-(2-naphthyl)alanyl-N-methyl-N-benzylamide] | 98 |  |
